Measurements published in patent US20110046191A1, “COMBINATION OF A MUSCARINIC RECEPTOR ANTAGONIST AND A BETA-2-ADRENOCEPTOR AGONIST” (ARGENTA DISCOVERY LTD., priority 2007, published 2011).
Where “and” joins values, the source holds several entries; their conditions need not be identical. Equal entries are not always repeated. Structures can show the parent of a compound that is named as a salt.

Key:
[1] = target: T1, Adrenergic β2 (Homo sapiens, UniProt P07550); assay: Adrenergic β2 mediated cAMP production in H292 cells (AlphaScreen); type: cell-based; conditions: Intrinsic Activity as a fraction relative to the maximum activity of formoterol
T1 construct: Adherent H292 cells were removed from tissue culture flasks; endogenous in cells; host or cells: H292 cells
T1 sequence (P07550 whole entry): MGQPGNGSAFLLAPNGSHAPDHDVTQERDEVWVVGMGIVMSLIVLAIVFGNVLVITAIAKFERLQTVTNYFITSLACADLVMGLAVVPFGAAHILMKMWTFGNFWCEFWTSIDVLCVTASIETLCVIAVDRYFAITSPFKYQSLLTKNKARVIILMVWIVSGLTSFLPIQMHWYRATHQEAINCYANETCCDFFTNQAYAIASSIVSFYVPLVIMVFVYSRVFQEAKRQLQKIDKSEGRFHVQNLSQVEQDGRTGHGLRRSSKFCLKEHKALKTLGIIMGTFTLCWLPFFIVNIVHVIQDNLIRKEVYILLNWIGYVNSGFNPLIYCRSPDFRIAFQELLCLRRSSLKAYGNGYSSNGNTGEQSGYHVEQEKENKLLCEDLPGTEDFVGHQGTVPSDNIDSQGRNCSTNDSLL
Method: Adrenergic β2 Mediated cAMP Production
H292 cells were grown in 225 cm2 flasks incubator at 37° C., 5% CO2 in RPMI medium containing, 10% (v/v) FBS (foetal bovine serum) and 2 mM L-glutamine.
Adherent H292 cells were removed from tissue culture flasks by treatment with Accutase™ cell detachment solution for 15 minutes. Flasks were incubated for 15 minutes in a humidified incubator at 37° C., 5% CO2. Detached cells were re-suspended in RPMI media (containing 10% (v/v) FBS and 2 mM L-glutamine) at 0.05×10^6 cells per mL. 5000 cells in 100 μL were added to each well of a tissue-culture-treated 96-well plate and the cells incubated overnight in a humidified incubator at 37° C., 5% CO2. The culture media was removed and cells were washed twice with 100 μL assay buffer and replaced with 50 μL assay buffer (HBSS solution containing 10 mM HEPES pH7.4 and 5 mM glucose). Cells were rested at room temperature for 20 minutes after which time 25 μL of rolipram (1.2 mM made up in assay buffer containing 2.4% (v/v) dimethylsulphoxide) was added. Cells were incubated with rolipram for 10 minutes after which time Compound A was added and the cells were incubated for 60 minutes at room temperature. The final rolipram concentration in the assay was 300 μM and final vehicle concentration was 1.6% (v/v) dimethylsulphoxide. The reaction was stopped by removing supernatants, washing once with 100 μL assay buffer and replacing with 50 μL lysis buffer. The cell monolayer was frozen at −80° C. for 30 minutes (or overnight).
The concentration of cAMP (cyclic adenosine monophosphate) in the cell lysate was determined using AlphaScreen™ methodology. […] The AlphaScreen™ signal was measured using an EnVision spectrophotometer (Perkin-Elmer Inc.) with the recommended manufacturer's settings. cAMP concentrations were determined by reference to a calibration curve determined in the same experiment using standard cAMP concentrations. […] Intrinsic Activity was expressed as a fraction relative to the maximum activity determined for formoterol in each experiment.

[2] = test system: Methacholine-induced bronchoconstriction in the guinea pig; assay: Lung function in anaesthetised guinea pigs: methacholine-induced bronchoconstriction; type: in vivo; conditions: 2 hours prior to methacholine, after 5 μg/kg methacholine i.v.
Method: Evaluation of Lung Function in Anaesthetised Guinea Pigs.
Male Dunkin-Hartley guinea pigs (300-600 g) were weighed and dosed with vehicle (0.05M phosphate, 0.1% Tween 80, 0.6% saline, pH 6) or compound via the intratracheal route under recoverable gaseous anaesthesia (5% halothane in oxygen). Animals were dosed with compound or vehicle two hours prior to the administration of methacholine. Guinea pigs were anaesthetised with pentobarbitone (1 mL/kg of 60 mg/mL solution i.p.) approximately 30 minutes prior to the first bronchoconstrictor administration. The trachea was cannulated and the animal ventilated using a constant volume respiratory pump (Harvard Rodent Ventilator model 683) at a rate of 60 breath/min and a tidal volume of 5 mL/kg. A jugular vein was cannulated for the administration of methacholine or maintenance anaesthetic (0.1 mL of pentobarbitone solution, 60 mg/mL, as required).
The animals were transferred to a Flexivent System (SCIREQ, Montreal, Canada) in order to measure airway resistance. The animals were ventilated (quasi-sinusoidal ventilation pattern) at 60 breaths/min at a tidal volume of 5 mL/kg. A positive end expiratory pressure of 2-3 cm H2O was applied. Respiratory resistance was measured using the Flexivent “snapshot” facility (1 second duration, 1 Hz frequency). Once a stable baseline resistance value had been obtained the animals were given methacholine in ascending doses (0.5, 1, 2, 3 and 5 μg/kg, i.v) at approximately 4-minute intervals via the jugular catheter. After each administration of bronchoconstrictor the peak resistance value was recorded. Guinea pigs were euthanised with approximately 1.0 mL pentobarbitone sodium (Euthatal) intravenously after the completion of the lung function measurements.
Percentage bronchoprotection produced by a compound was calculated at each dose of brochoconstrictor as follows:
Where % change Rveh is the mean of the maximum percentage change in airway resistance in the vehicle treated group. The results reported were measured after 5 μg/kg methacholine and were expressed as percentage bronchoprotection (mean±s.e.mean).
Guinea pigs were dosed with vehicle, 3 and 27 μg/kg compound (BA1), 0.2 μg/kg compound (MA2) (Crystalline Form A) or a combination of 3 μg/kg Compound (BA1) and 0.2 μg/kg Compound (MA2) via the intratracheal route. Administration of increasing intravenous doses of methacholine (0.5, 1, 2, 3 and 5 μg/kg) evoked dose-related bronchoconstriction in the vehicle treated animals ranging from 13±2.6% at 0.5 μg/kg to 2530±280% at 5 μg/kg two hours after vehicle administration (n=9).
[…] Administration of increasing intravenous doses of methacholine (0.5, 1, 2, 3 and 5 μg/kg) evoked dose-related bronchoconstriction in the vehicle treated animals ranging from 14±2.6% at 0.5 μg/kg to 2240±269% at 5 μg/kg two hours after vehicle administration (n=10).

[3] = target: T2, recombinant human adrenergic beta 1 receptors (Homo sapiens, UniProt P08588); assay: Adrenergic β1 selectivity binding assay ([125I]-Iodocyanopindolol); conditions: inhibition of [125I]-Iodocyanopindolol binding; read-out: β1 bind p IC50
T2 construct: purchased Euroscreen
T2 sequence (P08588 whole entry): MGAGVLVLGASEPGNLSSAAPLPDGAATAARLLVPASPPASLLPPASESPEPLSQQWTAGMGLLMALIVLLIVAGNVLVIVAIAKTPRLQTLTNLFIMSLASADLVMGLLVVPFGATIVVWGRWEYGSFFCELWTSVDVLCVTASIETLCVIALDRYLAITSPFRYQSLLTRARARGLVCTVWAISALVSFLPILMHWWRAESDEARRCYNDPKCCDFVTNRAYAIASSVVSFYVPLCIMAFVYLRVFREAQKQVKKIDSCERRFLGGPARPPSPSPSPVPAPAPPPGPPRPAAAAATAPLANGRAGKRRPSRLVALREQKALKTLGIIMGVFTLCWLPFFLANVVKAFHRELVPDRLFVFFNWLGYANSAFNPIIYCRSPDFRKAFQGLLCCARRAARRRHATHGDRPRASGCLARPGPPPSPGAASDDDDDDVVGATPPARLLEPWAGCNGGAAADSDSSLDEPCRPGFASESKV
Method: Membranes containing recombinant human adrenergic beta 1 receptors were obtained from Euroscreen. These were diluted in Assay Buffer (50 mM HEPES, 1 mM EDTA, 120 mM NaCl, 0.1% gelatin, pH 7.4) to provide a final concentration of membranes that gave a clear window between maximum and minimum specific binding.
Assays were performed in U-bottomed 96-well polypropylene plates. […] For each assay plate 8 replicates were obtained for [^125I]-Iodocyanopindolol binding in the presence of 10 μL vehicle (10% (v/v) DMSO in Assay Buffer; defining maximum binding) or 10 μL Propranolol (10 μM final concentration; defining non-specific binding (NSB)). Membranes were then added to achieve a final volume of 100 μL. […] Five washes with 250 μL wash buffer (50 mM HEPES, 1 mM EDTA, 120 mM NaCl, pH 7.4) were performed at 4° C. to remove unbound radioactivity. The plates were dried then sealed from underneath using Packard plate sealers and MicroScint-O (50 μL) was added to each well. The plates were sealed (TopSeal A) and filter-bound radioactivity was measured with a scintillation counter (TopCount, Packard BioScience) using a 3-minute counting protocol.
Total specific binding (B0) was determined by subtracting the mean NSB from the mean maximum binding. NSB values were also subtracted from values from all other wells.

[4] = target: T3, recombinant human α1D receptor (Homo sapiens, UniProt P25100); assay: Adrenergic α1D selectivity binding assay ([3H]-prazosin); conditions: inhibition of [3H]-prazosin binding; read-out: α1 bind pIC50 (converted)
T3 construct: expressed in transfected cells; host or cells: HEK293
T3 sequence (P25100 1-572): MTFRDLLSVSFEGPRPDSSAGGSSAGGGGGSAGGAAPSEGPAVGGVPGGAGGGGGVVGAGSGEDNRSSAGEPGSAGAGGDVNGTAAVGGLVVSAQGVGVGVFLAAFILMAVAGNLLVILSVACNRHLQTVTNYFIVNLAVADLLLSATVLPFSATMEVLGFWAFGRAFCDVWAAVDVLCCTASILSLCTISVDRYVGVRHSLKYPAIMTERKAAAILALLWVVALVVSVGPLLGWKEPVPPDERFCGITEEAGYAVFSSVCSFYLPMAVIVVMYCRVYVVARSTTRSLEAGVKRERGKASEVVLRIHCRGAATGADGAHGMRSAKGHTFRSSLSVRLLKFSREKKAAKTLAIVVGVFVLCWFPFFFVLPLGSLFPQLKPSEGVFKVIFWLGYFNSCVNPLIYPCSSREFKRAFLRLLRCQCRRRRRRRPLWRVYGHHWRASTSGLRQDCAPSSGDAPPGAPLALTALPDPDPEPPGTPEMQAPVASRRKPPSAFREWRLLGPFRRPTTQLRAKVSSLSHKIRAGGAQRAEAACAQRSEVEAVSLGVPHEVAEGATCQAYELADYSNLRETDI
Method: Membranes were prepared from human embryonic kidney 293 (HEK293) cells expressing recombinant human α1D receptor. These were diluted in Assay Buffer (50 mM HEPES, 1 mM EDTA, 0.1% gelatin, pH 7.4) to provide a final concentration of membranes that gave a clear window between maximum and minimum specific binding.
Assays were performed in U-bottomed 96-well polypropylene plates. 10 μL [^3H]-prazosin (0.3 nM final concentration) and 10 μL of Compound A (10× final concentration) were added to each test well. For each assay plate 8 replicates were obtained for [^3H]-prazosin binding in the presence of 10 μL vehicle (10% (v/v) DMSO in Assay Buffer; defining maximum binding) or 10 μL BMY7378 (10 μM final concentration; defining non-specific binding (NSB)). Membranes were then added to achieve a final volume of 100 μL. […] Five washes with 250 μL wash buffer (50 mM HEPES, 1 mM EDTA, pH 7.4) were performed at 4° C. to remove unbound radioactivity. […] The plates were sealed (TopSeal A) and filter-bound radioactivity was measured with a scintillation counter (TopCount, Packard BioScierice) using a 3-minute counting protocol.
Total specific binding (B0) was determined by subtracting the mean NSB from the mean maximum binding. […]

[5] = Gravimetric vapour sorption (GVS); type: physicochemical; conditions: at 80% RH, ambient temperature
Method: GVS profiles were measured using a Dynamic Vapour Sorption DVS-1 instrument. The solid sample ca. 1-5 mg was placed into a glass vessel and the weight of the sample was recorded during a dual cycle step method (40 to 90 to 0 to 90 to 0% relative humidity (RH), in steps of 10% RH). GVS profiles were recorded at ambient temperature.

[6] = Deaggregation properties of micronised Salt Form A (Fine Particle Fraction); type: physicochemical; conditions: micronised material, across 0-75% RH
Excerpt: ‘Salt Form A’ was Micronised in a 50 mm jet mill, with ejector pressure 5 bar and milling pressure 1.5-2 bar, giving (90% yield). Particle size of the micronised material as determined by Malvern Laser Diffraction with dry powder feeder was d(0.1) 0.77 μm: d(0.5), 1.45μ: d(0.9): 2.65 μm.

[7] = BA1 27 μg/kg intratracheal, dihydrobromide

GVS weight increase [5] | Compound | β2 Int Act [1] | IC50 [3] | further results
 | CCN(CC)CCN(CCNCCc1ccc(O)c2[nH]c(=O)sc12)C(=O)CCOCCc1cccc2ccccc12 [BA1, N-[2-(Diethylamino)ethyl]-N-(2-{[2-(4-hydroxy-2-oxo-2,3-dihydro-1,3-benzothiazol-7-yl)ethyl]amino}ethyl)-3-[2-(1-naphthyl)ethoxy]propanamide dihydrobromide] | 0.8 | > 10 µM | increase in resistance ([2]; BA1 1 μg/kg intratracheal): 1380±333%; inhibition of methacholine-induced bronchoconstriction ([2]; BA1 1 μg/kg intratracheal): 38%; increase in resistance ([2]; BA1 3 μg/kg intratracheal): 2090±239%; inhibition of methacholine-induced bronchoconstriction ([2]; BA1 3 μg/kg intratracheal): 17%; increase in resistance [2, 7]: 470±221% and 242±69%; inhibition of methacholine-induced bronchoconstriction [2, 7]: 81% and 89%
 | CCN(CC)CCN(CCNCCc1ccc(O)c2[nH]c(=O)sc12)C(=O)CCOCCc1cccc(Cl)c1 [BA2, N-[2-(Diethylamino)ethyl]-N-(2-{[2-(4-hydroxy-2-oxo-2,3-dihydro-1,3-benzothiazol-7-yl)ethyl]amino}ethyl)-3-[2-(3-chlorophenyl)ethoxy]propanamide dihydrobromide] | 0.7 | > 10 µM | IC50 [4]: > 0.794 µM
 | O=c1[nH]c2c(O)ccc([C@@H](O)CNCCSCCCNCCc3ccccc3Cl)c2s1 [BA3, 7-[(1R)-2-({2-[(3-{[2-(2-Chlorophenyl)ethyl]amino}propyl)thio]ethyl}amino)-1-hydroxyethyl]-4-hydroxy-1,3-benzothiazol-2(3H)-one dihydrobromide] | 0.8 |  | 
0.7 % w/w | C[N+](C)(CCCOc1ccccc1)Cc1cnc([C@](O)(c2ccccc2)C2CCCCC2)o1 [MA7 Form 2, [2-((R)-Cyclohexyl-hydroxy-phenyl-methyl)-oxazol-5-ylmethyl]-dimethyl-(3-phenoxy-propyl)-ammonium hemi-naphthalene-1,5-disulfonate] |  |  | 
3.0 % w/w | C[N+](C)(CCCOc1ccccc1)Cc1cnc([C@](O)(c2ccccc2)C2CCCCC2)o1 [MA7 Form 3, [2-((R)-Cyclohexyl-hydroxy-phenyl-methyl)-oxazol-5-ylmethyl]-dimethyl-(3-phenoxy-propyl)-ammonium hemi-naphthalene-1,5-disulfonate] |  |  | 
less than 0.5 % w/w | C[N+](C)(CCOCc1ccc(Cl)cc1)Cc1cnc([C@](O)(c2ccccc2)C2CCCCC2)o1 [MA11 Salt Form A, [2-(4-chloro-benzyloxy)-ethyl]-[2-((R)-cyclohexyl-hydroxy-phenyl-methyl)-oxazol-5-ylmethyl]-dimethyl-ammonium hemi-naphthalene-1,5-disulfonate] |  |  | Fine Particle Fraction (FPF) [6]: > 60%
